Here are results for one molecule from US20190369111A1, “MOLECULAR KINETICS EVALUATION METHOD AND SCREENING METHOD” (Tokyo University of Science Foundation, priority 2016, published 2019).

Molecules are shown by their SMILES.

The target in the assay is T1, wild-type K-Ras protein (Homo sapiens, UniProt P01116).
T1 construct: expressed in transfected cells; host or cells: HeLa cells, transient transfection
Nature of the assay: Degradation (knockdown) of forcibly expressed wild-type K-Ras protein in HeLa cells, FACS analysis. Type of assay: cell-based. As for the experimental part:
A plasmid expressing a wild-type K-Ras protein (K-Ras-WT) was prepared using a plasmid (pMIR-DsRed-IRES-ecDHFR-HA-GFP) expressing an ecDHFR protein by RF cloning. The full-length cDNA clone (Accession No. AK292510) of a human K-ras gene was purchased from Independent Administrative Institution, the National Institute of Technology and Evaluation. PCR amplification was performed using KOD-Plus-Neo (TOYOBO CO., LTD) as a PCR enzyme.
The plasmid was introduced into HeLa cells to transiently overexpress a wild-type K-Ras protein (specifically, a fusion protein of a wild-type K-Ras protein and GFP via a HA tag) or a DsRed protein for comparison in the cells.
ScreenFect™A (Wako Pure Chemical Industries, Ltd.) as a transfection reagent was used to introduce the plasmid into HeLa cells by a routine procedure. The HeLa cells into which the plasmid had been introduced were seeded in a 24-well plate at a cell density of 4×10^4 cells/well, and then cultured under conditions of 37° C. and 5 vol % CO2 for 40 hours. […]
A BD FACSCanto™ II (BD Biosciences) was used for flow cytometry, and the expression levels of GFP and DsRed protein in the cells were quantified. […] The GFP/DsRed ratio per cell was computed using an analysis software FlowJo™ (TOMY Digital Biology Co., Ltd.), and degradation (knockdown) of the wild-type K-Ras protein by TUS-007 was determined from a shift in a graph.

T1 sequence (P01116 1-188 isoform P01116-2): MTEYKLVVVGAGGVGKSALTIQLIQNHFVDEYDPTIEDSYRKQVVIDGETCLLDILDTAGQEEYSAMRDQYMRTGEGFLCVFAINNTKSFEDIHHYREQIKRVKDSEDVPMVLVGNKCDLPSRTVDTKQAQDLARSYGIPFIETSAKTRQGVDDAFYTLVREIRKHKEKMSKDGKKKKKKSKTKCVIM

Take `CC[C@@H](C)[C@H](NC(=O)CCCCCCNC(=O)[C@H](CC(C)C)NC(=O)CNC(=O)c1cc(Cl)ccc1Cl)C(=O)Nc1ccc2[nH]c(Cc3c[nH]c4ccccc34)nc2c1` [TUS-007]: the “degradation (knockdown) of wild-type K-Ras protein (shift of GFP/DsRed ratio graph)” value (24 hours after addition, vs control (DMSO)) is on record as “degradation of the wild-type K-Ras protein was induced”. For the same molecule, the “degradation of wild-type K-Ras protein when MLN2238 is added together” value (both TUS-007 and MLN2238 added, compared with TUS-007 alone) is recorded as “degradation of the wild-type K-Ras protein was inhibited”.
